Drawing on US20240425480A1, “NOVEL PYRIDINE DERIVATIVE COMPOUND AS RON INHIBITOR” (LG CHEM, LTD., priority 2021, published 2024), this text covers IC50 for six compounds.

In one test the target is RON (Homo sapiens, UniProt Q04912). The experiment in a line: Inhibitory activity against RON, TR-FRET kinase assay. It counts as biochemical. Conditions: TR-FRET enzyme assay. The procedure, abridged: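 Compounds (3-fold series from a 1 mM DMSO stock) were preincubated 20–30 min at RT with RON (0.4 nM solution) in pH 7.4 HEPES, 10 mM MgCl2 buffer. A 2× cocktail of 40 uM ULight-Poly GT and 100 nM ATP was then added for 60 min at RT. After EDTA stop, Eu anti-phosphotyrosine TR-FRET (665/620 nm) was read and IC50 derived.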
Sequence of RON (Q04912 25-1400, species assumed): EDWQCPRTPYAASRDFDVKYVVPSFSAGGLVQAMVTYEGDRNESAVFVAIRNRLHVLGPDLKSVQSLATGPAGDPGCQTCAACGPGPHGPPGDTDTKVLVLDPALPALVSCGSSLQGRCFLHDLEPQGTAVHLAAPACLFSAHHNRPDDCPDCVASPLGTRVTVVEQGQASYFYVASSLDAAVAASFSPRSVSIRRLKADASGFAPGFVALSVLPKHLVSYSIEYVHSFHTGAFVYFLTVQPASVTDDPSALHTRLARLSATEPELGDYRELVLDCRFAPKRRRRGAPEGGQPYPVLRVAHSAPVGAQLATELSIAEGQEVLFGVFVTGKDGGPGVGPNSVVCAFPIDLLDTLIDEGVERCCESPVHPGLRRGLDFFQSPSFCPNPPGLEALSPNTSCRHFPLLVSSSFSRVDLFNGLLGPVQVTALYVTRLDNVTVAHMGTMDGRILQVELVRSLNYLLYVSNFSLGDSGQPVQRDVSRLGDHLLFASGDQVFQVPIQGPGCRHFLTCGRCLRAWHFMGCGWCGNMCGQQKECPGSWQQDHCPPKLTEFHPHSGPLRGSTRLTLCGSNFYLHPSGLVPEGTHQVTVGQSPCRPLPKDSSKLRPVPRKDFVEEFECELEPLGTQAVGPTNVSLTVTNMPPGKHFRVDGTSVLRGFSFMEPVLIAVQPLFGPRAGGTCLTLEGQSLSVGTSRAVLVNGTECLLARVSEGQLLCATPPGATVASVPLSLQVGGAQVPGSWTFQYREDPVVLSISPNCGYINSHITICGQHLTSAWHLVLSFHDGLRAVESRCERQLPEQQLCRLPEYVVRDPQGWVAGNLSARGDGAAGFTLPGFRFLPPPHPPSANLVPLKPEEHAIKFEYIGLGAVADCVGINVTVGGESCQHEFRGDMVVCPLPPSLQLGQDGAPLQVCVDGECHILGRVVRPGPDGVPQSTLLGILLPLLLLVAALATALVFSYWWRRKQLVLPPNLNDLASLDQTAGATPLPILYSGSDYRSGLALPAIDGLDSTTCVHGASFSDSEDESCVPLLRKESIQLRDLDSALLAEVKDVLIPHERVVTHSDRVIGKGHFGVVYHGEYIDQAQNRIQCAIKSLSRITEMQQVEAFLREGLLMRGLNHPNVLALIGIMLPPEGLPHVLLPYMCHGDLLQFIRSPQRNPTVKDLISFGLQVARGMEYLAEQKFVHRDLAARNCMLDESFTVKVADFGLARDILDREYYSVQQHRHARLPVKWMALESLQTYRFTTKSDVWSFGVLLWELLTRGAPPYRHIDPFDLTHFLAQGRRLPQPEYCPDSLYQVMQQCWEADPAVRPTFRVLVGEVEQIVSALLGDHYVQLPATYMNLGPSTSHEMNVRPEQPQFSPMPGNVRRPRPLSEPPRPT

The target of a further test is cMET (Homo sapiens, UniProt P08581). The test is described as follows: Inhibitory activity against MET (cMET), TR-FRET kinase assay. It counts as biochemical. Conditions: TR-FRET enzyme assay. The procedure, abridged: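 Human cMET (2 nM dilution) preincubated with compound 20-30 min at room temperature in HEPES pH 7.4 buffer with MnCl2/MgCl2, then 60 min with TK peptide and ATP substrate cocktail (5 uM peptide, 10 mM ATP, prepared at 2× final). EDTA-stopped; europium anti-phosphotyrosine TR-FRET read at 620/665 nm; pIC50 derived.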
Sequence of cMET (P08581 25-1390): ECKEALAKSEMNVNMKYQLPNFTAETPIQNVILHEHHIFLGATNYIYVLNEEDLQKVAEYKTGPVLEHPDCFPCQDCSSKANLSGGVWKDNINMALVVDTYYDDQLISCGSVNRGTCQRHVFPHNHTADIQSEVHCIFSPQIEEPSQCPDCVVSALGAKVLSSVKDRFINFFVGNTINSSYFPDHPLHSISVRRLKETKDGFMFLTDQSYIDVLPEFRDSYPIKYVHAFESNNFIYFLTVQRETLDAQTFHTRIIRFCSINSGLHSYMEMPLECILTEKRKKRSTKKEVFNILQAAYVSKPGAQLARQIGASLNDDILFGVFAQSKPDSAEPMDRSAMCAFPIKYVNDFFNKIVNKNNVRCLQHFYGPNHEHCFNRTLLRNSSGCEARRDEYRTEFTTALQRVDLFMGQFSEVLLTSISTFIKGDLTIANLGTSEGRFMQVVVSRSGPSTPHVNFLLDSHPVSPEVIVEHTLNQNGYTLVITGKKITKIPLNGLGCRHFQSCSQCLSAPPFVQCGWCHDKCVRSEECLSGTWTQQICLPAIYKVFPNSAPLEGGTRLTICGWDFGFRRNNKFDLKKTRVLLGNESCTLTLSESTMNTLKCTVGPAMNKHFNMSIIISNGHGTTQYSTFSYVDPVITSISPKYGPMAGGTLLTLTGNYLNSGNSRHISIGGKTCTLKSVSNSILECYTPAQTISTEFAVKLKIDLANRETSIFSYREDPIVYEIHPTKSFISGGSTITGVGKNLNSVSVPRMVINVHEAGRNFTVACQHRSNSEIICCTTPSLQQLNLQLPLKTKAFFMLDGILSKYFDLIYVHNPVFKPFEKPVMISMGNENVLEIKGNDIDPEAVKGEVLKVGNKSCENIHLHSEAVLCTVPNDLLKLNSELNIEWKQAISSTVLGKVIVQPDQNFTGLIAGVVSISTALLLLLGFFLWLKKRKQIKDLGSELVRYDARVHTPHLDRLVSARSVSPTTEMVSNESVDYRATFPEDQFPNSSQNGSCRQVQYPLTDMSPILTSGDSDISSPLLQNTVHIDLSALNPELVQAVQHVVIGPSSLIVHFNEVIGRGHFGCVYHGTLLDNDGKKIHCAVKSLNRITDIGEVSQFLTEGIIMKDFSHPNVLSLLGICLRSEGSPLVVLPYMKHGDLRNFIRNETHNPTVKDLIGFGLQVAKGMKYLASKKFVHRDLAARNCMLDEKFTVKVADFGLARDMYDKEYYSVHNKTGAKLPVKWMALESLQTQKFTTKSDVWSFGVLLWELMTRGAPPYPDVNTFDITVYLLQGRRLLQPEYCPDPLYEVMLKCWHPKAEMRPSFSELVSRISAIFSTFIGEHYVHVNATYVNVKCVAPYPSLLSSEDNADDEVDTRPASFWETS
In general terms: TR-FRET usually uses a lanthanide donor and a delayed reading to cut background.

Structures are written as SMILES. pIC50: −log10 of the molar value.

Usually pIC50 stands for −log10 of the IC50, conventionally taken in molar units. Read a high pIC50 as a small IC50. For `Nc1nccc(Oc2ccc(NC(=O)c3cnn(-c4ncccc4F)c3C(F)(F)F)cc2F)c1I` [Example 28, N-(4-((2-amino-3-iodopyridin-4-yl)oxy)-3-fluorophenyl)-1-(3-fluoropyridin-2-yl)-5-(trifluoromethyl)-1H-pyrazole-4-carboxamide], the values for the pIC50 against RON and against cMET were more than 7.30 and 5.30 to 6.30, respectively.
In the case of `Nc1nccc(Oc2ccc(NC(=O)c3cnn(-c4ncccc4F)c3C(F)(F)F)cc2F)c1Cl` [Example 8, N-(4-((2-amino-3-chloropyridin-4-yl)oxy)-3-fluorophenyl)-1-(3-fluoropyridin-2-yl)-5-(trifluoromethyl)-1H-pyrazole-4-carboxamide], the negative-log IC50 (pIC50) on RON was more than 7.30; against cMET it was 5.30 to 6.30.
The corresponding values for `Nc1ncnc(Oc2ccc(NC(=O)c3cnn(-c4cc(F)ccn4)c3C(F)(F)F)cc2F)c1Cl` [Example 63, N-[4-(6-amino-5-chloro-pyrimidin-4-yl)oxy-3-fluoro-phenyl]-1-(4-fluoro-2-pyridyl)-5-(trifluoromethyl)pyrazole-4-carboxamide] are 6.30 to 7.30 and less than 5.30.
In the same order, the values of `Nc1ncnc(Oc2ccc(NC(=O)c3cnn(-c4ncccc4C(F)(F)F)c3C(F)(F)F)cc2F)c1Cl` [Example 53, N-[4-(6-amino-5-chloro-pyrimidin-4-yl)oxy-3-fluoro-phenyl]-5-(trifluoromethyl)-1-[3-(trifluoromethyl)-2-pyridyl]pyrazole-4-carboxamide] are 6.30 to 7.30 and 5.30 to 6.30.
In the same order, the values of `Nc1nccc(Oc2ccc(NC(=O)c3cnn(-c4cc(Cl)ccn4)c3C(F)(F)F)cc2F)c1Cl` [Example 14, N-(4-((2-amino-3-chloropyridin-4-yl)oxy)-3-fluorophenyl)-1-(4-chloropyridin-2-yl)-5-(trifluoromethyl)-1H-pyrazole-4-carboxamide] are 6.30 to 7.30 and less than 5.30.
For `CC(C)Nc1c(Oc2ccc(NC(=O)c3cnn(-c4ncccc4F)c3C(F)(F)F)cc2F)ccnc1N` [Example 34, N-(4-((2-amino-3-(isopropylamino)pyridin-4-yl)oxy)-3-fluorophenyl)-1-(3-fluoropyridin-2-yl)-5-(trifluoromethyl)-1H-pyrazole-4-carboxamide], the pIC50 against RON is more than 7.30; on cMET it was less than 5.30.
